The values below come from ChEMBL document CHEMBL5584296, “Discovery of Novel Pyrimidine-Based Derivatives as Nav1.2 Inhibitors with Efficacy in Mouse Models of Epilepsy” (J Med Chem, 2024).

Data set [1] in a line: Neurotoxicity in male ICR mouse assessed as motor impairment at 5 mg/kg, ip administered for 30 mins by rotarod test relative to control. The following applies: in vivo, 0.5 h. It counts as toxicity, organism-based.
Data set [2] relates to Mus musculus. As to the kind of experiment: Antiepileptic activity in MES-induced seizure male ICR mouse model assessed as protection against tonic hind limb extension at 15 mg/kg, ip measured after 30 mins relative to control. Conditions: 0.5 h. The class given is functional.
Data set [3] has as its target T1, Sodium channel protein type 2 subunit alpha (Homo sapiens, UniProt Q99250). As to the kind of experiment: Inhibition of human Nav1.2 expressed in HEK293 cells at -40 mv holding potential measured after 5 mins by whole cell voltage clamp electrophysiological analysis. The class given is cell-based.
Data set [4] deals with Mus musculus. As to the kind of experiment: Antiepileptic activity in MES-induced seizure male ICR mouse model assessed as protection against tonic hind limb extension administered intraperitoneally for 30 mins. The class given is functional. The following applies: 0.5 h, route ip.
Data set [5] addresses T2, Sodium channel protein type 5 subunit alpha (Homo sapiens, UniProt Q14524). As to the kind of experiment: Inhibition of human Nav1.5 expressed in CHL cells assessed as test to control ratio at 0.1 uM by whole cell voltage clamp electrophysiological analysis. The class given is cell-based.
Data set [6] addresses T2, Sodium channel protein type 5 subunit alpha. As to the kind of experiment: Inhibition of human Nav1.5 expressed in CHL cells assessed as test to control ratio at 1 uM by whole cell voltage clamp electrophysiological analysis. The class given is cell-based.
Data set [7] addresses T1, Sodium channel protein type 2 subunit alpha. As to the kind of experiment: Inhibition of human Nav1.2 expressed in HEK293 cells assessed as test to control ratio at 1 uM measured after 5 mins by whole cell voltage clamp electrophysiological analysis. The class given is cell-based.
Data set [8] has the same target. As to the kind of experiment: Inhibition of human Nav1.2 expressed in HEK293 cells assessed as effect on steady state inactivation by measuring half activation potential at 0.2 uM (reference value: -54 mV). It counts as cell-based.
Data set [9] relates to Mus musculus. As to the kind of experiment: Antiepileptic activity in 6 Hz(32 mA)-induced seizure male C57BL mouse model administered intraperitoneally for 30 mins by epilepsy test. It counts as functional. Conditions: 0.5 h, route ip.
Data set [10] concerns the target Sodium channel protein type 8 subunit alpha (Homo sapiens) (UniProt Q9UQD0). As to the kind of experiment: Inhibition of human Nav1.6 expressed in CHO cells assessed as test to control ratio at 0.1 uM by whole cell voltage clamp electrophysiological analysis. It counts as cell-based.
Data set [11] can be described thus: Neurotoxicity in male ICR mouse administered intraperitoneally for 30 mins. The following applies: in vivo, route ip. The class given is toxicity.
Data set [12] concerns Mus musculus. As to the kind of experiment: Antiepileptic activity in 6 Hz(32 mA)-induced seizure male C57BL mouse model assessed as protection against seizure at 5 mg/kg, ip administered for 30 mins by epilepsy test. The class given is functional. Conditions: 0.5 h.
A short description of data set [13]: Neurotoxicity in male ICR mouse assessed as motor impairment at 40 mg/kg, ip administered for 30 mins by rotarod test relative to control. The class given is toxicity, organism-based. Conditions: in vivo, 0.5 h. For orientation: The rotarod test checks motor coordination on a turning rod.
Data set [14] in a line: Neurotoxicity in male ICR mouse assessed as motor impairment at 30 mg/kg, ip administered for 30 mins by rotarod test relative to control. The class given is toxicity, organism-based. Conditions: in vivo, 0.5 h.
A short description of data set [15]: Neurotoxicity in male ICR mouse assessed as motor impairment at 37 mg/kg, ip administered for 30 mins by rotarod test relative to control. The class given is toxicity, organism-based. The following applies: in vivo, 0.5 h.
The target in data set [16] is T1, Sodium channel protein type 2 subunit alpha. As to the kind of experiment: Inhibition of human Nav1.2 expressed in HEK293 cells assessed as test to control ratio at 10 uM measured after 5 mins by whole cell voltage clamp electrophysiological analysis. The class given is cell-based.
The target is the same in data set [17]. As to the kind of experiment: Inhibition of human Nav1.2 expressed in HEK293 cells assessed as test to control ratio at 0.1 uM measured after 5 mins by whole cell voltage clamp electrophysiological analysis. It counts as cell-based.
In data set [18] the test system is Mus musculus. As to the kind of experiment: Antiepileptic activity in 6 Hz(32 mA)-induced seizure male C57BL mouse model assessed as protection against seizure at 10 mg/kg, ip administered for 30 mins by epilepsy test. The class given is functional. The following applies: 0.5 h.
The target in data set [19] is Sodium channel protein type 1 subunit alpha (Homo sapiens) (UniProt P35498). As to the kind of experiment: Inhibition of human Nav1.1 expressed in HEK293 cells assessed as test to control ratio at 1 uM by whole cell voltage clamp electrophysiological analysis. The class given is cell-based.
The target of data set [20] is T1, Sodium channel protein type 2 subunit alpha. As to the kind of experiment: Inhibition of human Nav1.2 expressed in HEK293 cells at -120 mv holding potential measured after 5 mins by whole cell voltage clamp electrophysiological analysis. The class given is cell-based.
Data set [21] relates to Mus musculus. As to the kind of experiment: Antiepileptic activity in 6 Hz(32 mA)-induced seizure male C57BL mouse model assessed as protection against seizure at 30 mg/kg, ip administered for 30 mins by epilepsy test. It counts as functional. The following applies: 0.5 h.
The nature of data set [22]: Neurotoxicity in male ICR mouse assessed as motor impairment at 35 mg/kg, ip administered for 30 mins by rotarod test relative to control. It counts as toxicity, organism-based. The following applies: in vivo, 0.5 h.
For data set [23], the target named is T1, Sodium channel protein type 2 subunit alpha. As to the kind of experiment: Inhibition of human Nav1.2 expressed in HEK293 cells assessed as effect on steady state activation by measuring half activation potential at 0.2 uM (reference value: -36 mV). The class given is cell-based.
Data set [24] concerns the target Sodium channel protein type 8 subunit alpha (Homo sapiens) (UniProt Q9UQD0). As to the kind of experiment: Inhibition of human Nav1.6 expressed in CHO cells assessed as test to control ratio at 1 uM by whole cell voltage clamp electrophysiological analysis. The class given is cell-based.
Data set [25] has as its system Mus musculus. As to the kind of experiment: Antiepileptic activity in MES-induced seizure male ICR mouse model assessed as protection against tonic hind limb extension at 25 mg/kg, ip measured after 30 mins relative to control. The class given is functional. Conditions: 0.5 h.
For data set [26], the system named is Mus musculus. As to the kind of experiment: Antiepileptic activity in MES-induced seizure male ICR mouse model assessed as protection against tonic hind limb extension at 5 mg/kg, ip measured after 30 mins relative to control. It counts as functional. Conditions: 0.5 h.
In data set [27] the target is Sodium channel protein type 1 subunit alpha (Homo sapiens) (UniProt P35498). As to the kind of experiment: Inhibition of human Nav1.1 expressed in HEK293 cells assessed as test to control ratio at 0.1 uM by whole cell voltage clamp electrophysiological analysis. The class given is cell-based.
The nature of data set [28]: Neurotoxicity in male ICR mouse assessed as motor impairment at 300 mg/kg, ip administered for 30 mins by rotarod test relative to control. The class given is toxicity, organism-based. Conditions: in vivo, 0.5 h.
The target in data set [29] is T1, Sodium channel protein type 2 subunit alpha. As to the kind of experiment: Inhibition of human Nav1.2 expressed in HEK293 cells assessed as effect on steady state activation by measuring half activation potential at 20 uM (reference value: -37 mV). It counts as cell-based.
The test system of data set [30] is Mus musculus. As to the kind of experiment: Antiepileptic activity in MES-induced seizure male ICR mouse model assessed as protection against tonic hind limb extension at 30 mg/kg, ip measured after 30 mins relative to control. It counts as functional. Conditions: 0.5 h.
Data set [31] can be described thus: Neurotoxicity in male ICR mouse assessed as motor impairment at 150 mg/kg, ip administered for 30 mins by rotarod test relative to control. Conditions: in vivo, 0.5 h. It counts as toxicity, organism-based.
The test system of data set [32] is Mus musculus. As to the kind of experiment: Antiepileptic activity in 6 Hz(32 mA)-induced seizure male C57BL mouse model assessed as protection against seizure at 50 mg/kg, ip administered for 30 mins by epilepsy test. Conditions: 0.5 h. It counts as functional.
Data set [33] concerns the target T1, Sodium channel protein type 2 subunit alpha. As to the kind of experiment: Inhibition of human Nav1.2 expressed in HEK293 cells assessed as effect on steady state inactivation by measuring half activation potential at 20 uM (reference value: -59 mV). The class given is cell-based.
Data set [34] deals with Mus musculus. As to the kind of experiment: Antiepileptic activity in MES-induced seizure male ICR mouse model assessed as protection against tonic hind limb extension at 20 mg/kg, ip measured after 30 mins relative to control. The following applies: 0.5 h. The class given is functional.
Data set [35] deals with Mus musculus. As to the kind of experiment: Antiepileptic activity in MES-induced seizure male ICR mouse model assessed as protection against tonic hind limb extension at 10 mg/kg, ip measured after 30 mins relative to control. The following applies: 0.5 h. It counts as functional.
A short description of data set [36]: Neurotoxicity in male ICR mouse assessed as motor impairment at 250 mg/kg, ip administered for 30 mins by rotarod test relative to control. The class given is toxicity, organism-based. Conditions: in vivo, 0.5 h.

T2 sequence (Q14524 whole entry): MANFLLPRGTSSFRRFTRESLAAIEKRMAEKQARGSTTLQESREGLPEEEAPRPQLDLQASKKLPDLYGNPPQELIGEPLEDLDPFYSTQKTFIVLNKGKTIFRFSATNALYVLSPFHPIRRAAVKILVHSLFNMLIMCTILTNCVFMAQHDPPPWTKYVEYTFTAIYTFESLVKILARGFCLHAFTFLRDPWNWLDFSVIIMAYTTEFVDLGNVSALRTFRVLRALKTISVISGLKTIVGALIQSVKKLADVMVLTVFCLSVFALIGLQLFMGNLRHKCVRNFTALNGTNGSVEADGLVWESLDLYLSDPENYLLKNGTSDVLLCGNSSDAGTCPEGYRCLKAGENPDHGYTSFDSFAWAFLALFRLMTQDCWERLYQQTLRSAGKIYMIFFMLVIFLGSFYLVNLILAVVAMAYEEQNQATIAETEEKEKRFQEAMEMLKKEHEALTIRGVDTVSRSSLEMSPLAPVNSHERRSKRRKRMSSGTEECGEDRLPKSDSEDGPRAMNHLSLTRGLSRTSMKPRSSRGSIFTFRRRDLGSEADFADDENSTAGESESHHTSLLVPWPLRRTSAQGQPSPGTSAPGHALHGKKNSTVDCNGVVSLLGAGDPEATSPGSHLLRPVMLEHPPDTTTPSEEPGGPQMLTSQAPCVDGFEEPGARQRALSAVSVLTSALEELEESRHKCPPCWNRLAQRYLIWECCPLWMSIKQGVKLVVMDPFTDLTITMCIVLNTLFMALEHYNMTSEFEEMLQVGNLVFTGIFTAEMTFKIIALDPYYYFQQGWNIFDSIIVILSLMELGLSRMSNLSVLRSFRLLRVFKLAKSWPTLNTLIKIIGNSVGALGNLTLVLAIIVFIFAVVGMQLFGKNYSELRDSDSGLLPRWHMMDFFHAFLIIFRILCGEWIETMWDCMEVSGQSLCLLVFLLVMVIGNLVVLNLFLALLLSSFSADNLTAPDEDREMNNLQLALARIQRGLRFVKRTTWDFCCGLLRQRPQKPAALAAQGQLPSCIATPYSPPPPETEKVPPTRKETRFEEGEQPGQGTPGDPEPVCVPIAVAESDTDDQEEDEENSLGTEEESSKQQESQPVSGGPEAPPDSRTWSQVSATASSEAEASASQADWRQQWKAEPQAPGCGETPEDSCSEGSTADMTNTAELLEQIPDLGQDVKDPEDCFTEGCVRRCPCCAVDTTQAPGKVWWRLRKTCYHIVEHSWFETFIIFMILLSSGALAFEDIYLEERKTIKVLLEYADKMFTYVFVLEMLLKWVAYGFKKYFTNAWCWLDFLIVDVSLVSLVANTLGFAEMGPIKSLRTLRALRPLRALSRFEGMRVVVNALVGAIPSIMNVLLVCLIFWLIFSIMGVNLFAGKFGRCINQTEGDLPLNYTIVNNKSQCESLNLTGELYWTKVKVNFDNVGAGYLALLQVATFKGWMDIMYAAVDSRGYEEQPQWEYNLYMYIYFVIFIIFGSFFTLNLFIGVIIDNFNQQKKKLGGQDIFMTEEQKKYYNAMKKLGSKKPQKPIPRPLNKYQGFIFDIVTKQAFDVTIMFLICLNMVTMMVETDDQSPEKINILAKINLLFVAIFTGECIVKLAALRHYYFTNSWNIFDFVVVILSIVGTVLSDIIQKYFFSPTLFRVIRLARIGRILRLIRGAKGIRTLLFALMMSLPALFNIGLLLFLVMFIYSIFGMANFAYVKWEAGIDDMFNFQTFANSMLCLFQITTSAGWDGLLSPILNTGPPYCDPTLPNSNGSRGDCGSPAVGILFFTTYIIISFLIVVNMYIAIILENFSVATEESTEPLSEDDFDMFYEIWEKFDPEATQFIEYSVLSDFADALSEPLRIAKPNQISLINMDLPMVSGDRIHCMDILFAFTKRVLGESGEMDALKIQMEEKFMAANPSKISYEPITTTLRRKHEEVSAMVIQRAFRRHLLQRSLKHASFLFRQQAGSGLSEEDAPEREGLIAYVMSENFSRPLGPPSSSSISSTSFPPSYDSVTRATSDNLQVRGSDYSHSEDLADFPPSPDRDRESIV
Sequence of Sodium channel protein type 8 subunit alpha (Homo sapiens) (Q9UQD0 whole entry, looked up): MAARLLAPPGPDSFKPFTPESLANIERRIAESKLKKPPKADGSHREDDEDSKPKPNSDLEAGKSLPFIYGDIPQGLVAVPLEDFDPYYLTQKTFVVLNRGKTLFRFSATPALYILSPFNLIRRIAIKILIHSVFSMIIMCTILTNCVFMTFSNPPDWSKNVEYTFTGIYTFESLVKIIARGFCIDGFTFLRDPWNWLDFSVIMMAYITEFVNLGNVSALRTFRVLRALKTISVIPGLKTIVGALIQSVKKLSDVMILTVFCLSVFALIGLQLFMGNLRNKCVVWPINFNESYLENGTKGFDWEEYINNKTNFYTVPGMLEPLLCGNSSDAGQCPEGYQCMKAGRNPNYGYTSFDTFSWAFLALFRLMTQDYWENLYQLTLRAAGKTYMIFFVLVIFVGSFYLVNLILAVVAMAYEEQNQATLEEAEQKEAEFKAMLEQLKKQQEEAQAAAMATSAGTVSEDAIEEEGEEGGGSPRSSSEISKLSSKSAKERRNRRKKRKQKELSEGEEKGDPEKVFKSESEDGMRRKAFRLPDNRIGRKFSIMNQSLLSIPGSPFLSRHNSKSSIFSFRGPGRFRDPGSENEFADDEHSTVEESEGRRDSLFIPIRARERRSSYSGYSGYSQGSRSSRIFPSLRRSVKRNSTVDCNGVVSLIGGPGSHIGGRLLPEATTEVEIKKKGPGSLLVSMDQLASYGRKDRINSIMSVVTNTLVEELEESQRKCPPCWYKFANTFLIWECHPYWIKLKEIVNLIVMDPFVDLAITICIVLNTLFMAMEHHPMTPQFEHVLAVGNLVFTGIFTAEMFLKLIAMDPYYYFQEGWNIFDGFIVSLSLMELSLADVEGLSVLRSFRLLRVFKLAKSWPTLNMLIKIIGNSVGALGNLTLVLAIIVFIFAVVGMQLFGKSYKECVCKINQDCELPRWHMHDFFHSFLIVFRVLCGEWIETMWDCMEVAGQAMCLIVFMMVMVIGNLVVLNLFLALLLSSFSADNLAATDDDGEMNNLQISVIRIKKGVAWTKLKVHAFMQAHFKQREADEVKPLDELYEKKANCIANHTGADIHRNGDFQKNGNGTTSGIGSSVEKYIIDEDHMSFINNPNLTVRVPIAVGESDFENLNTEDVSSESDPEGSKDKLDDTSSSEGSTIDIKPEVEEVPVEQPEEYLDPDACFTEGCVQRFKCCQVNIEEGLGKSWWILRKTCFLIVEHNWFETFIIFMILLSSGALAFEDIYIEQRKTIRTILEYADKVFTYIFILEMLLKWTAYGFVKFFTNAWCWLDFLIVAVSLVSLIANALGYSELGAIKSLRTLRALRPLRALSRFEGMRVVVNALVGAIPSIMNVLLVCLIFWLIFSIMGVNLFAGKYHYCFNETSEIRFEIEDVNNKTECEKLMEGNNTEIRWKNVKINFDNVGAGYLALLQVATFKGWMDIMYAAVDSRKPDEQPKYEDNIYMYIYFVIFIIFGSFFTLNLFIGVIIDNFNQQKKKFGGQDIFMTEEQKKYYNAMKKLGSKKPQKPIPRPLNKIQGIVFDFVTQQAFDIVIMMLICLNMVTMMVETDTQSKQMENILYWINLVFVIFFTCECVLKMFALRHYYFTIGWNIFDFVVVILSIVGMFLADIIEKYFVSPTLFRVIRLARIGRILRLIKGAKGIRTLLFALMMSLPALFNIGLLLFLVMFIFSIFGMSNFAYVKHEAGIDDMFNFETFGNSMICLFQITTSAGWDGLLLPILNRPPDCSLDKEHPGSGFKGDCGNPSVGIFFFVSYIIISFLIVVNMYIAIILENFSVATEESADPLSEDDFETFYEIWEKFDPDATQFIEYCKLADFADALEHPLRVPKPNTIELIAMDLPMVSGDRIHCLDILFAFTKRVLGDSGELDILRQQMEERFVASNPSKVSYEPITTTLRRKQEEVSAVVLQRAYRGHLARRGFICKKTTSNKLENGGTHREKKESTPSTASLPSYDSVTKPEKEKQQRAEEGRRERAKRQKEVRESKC

As to `CN(C)CCCN1c2ccccc2Sc2ccc(Cl)cc21` [CHLORPROMAZINE], the Activity in data set [1] came to 88%.

Broadly, the IC50 is the midpoint of a concentration-inhibition curve. A higher IC50 goes with weaker potency in that assay. The term ED50 denotes the dose that gives a 50% effect, or the effect in half of the subjects. For orientation: TD50 means the dose at which the toxic effect under study appears in half of the subjects. High values mean harm only at a large dose, low ones harm at a small dose. With `COc1cccc(-c2cc(N3CCCc4ccc(C)cc4C3)nc(N)n2)c1`, the Activity was determined as 44% in data set [2]; 13% in data set [12]; 100% in data set [13]; 38% in data set [14]; 88% in [15]; 38% in data set [18]. The Activity in [21] turned out to be 63%; in [22], 63%; in data set [25] it was 88%; in data set [26], 25%. Also, the IC50 in data set [3] stood at 65 nM; in data set [20], 158 nM. The ED50 in data set [4] was determined as 11.1 mg/kg; in [9], 18.5 mg/kg. Further, the T/C in data set [5] was 0.18; in [6] it was 0.07; in [7] it was 0.04; in data set [10], 0.42; in [16], 0; in data set [17], 0.39. Moreover, the T/C in data set [19] was 0.02; in [24], 0.09; in data set [27] it was 0.18. The V1/2 in [8] was -56 mV; in [23] it was -30 mV. In [11], the TD50 at 0.5 h came to 31.9 mg/kg.

As to `COc1cccc(-c2cc(N3CC4CC(C3)c3ccccc34)nc(N)n2)c1`, the results for the IC50 in data set [3] and in [20] were 635 nM and 21500 nM, respectively. Further, the Activity in [28] is listed as 88%; in data set [30] it was 75%; in [18] it was 13%; in data set [31] it was 13%; in [21] it was 38%; in data set [32], 63%. For the same compound, the Activity in data set [34] was found to be 50%; in data set [35], 38%; in data set [36], 38%. In addition, the ED50 was 15.8 mg/kg in data set [4] and 38 mg/kg in data set [9]. Moreover, the T/C in data set [5] amounted to 0.89; in data set [6], 0.37; in data set [7], 0.4; in data set [10], 0.51; in data set [16], 0.02; in data set [17], 0.87. The T/C in data set [19] was determined as 0.33; in data set [24] it was 0.1; in [27], 0.93. Besides, the TD50 at 0.5 h in [11] stood at 232 mg/kg. Besides, the V1/2 is -32 mV in [29] and -70 mV in data set [33].
